The source of these data is publication PMC12040169 (PLOS Biology, 2025).

The series in a line: in vitro. As to conditions: human, hela cells.

A word on the viability: it is a read-out of living cells in per cent, often relative to untreated cells.

With `C=CCSc1nnc(OC(=O)N(C)C)n1-c1ccc(Cl)cc1` [CBK004817], the viability at 28.5 h, 10 µM was found to be 90.8%.
Regarding `Cc1cc(=O)oc(-c2ccccc2)c1C#N` [CBK004842], under “% viability”, the viability at 28.5 h, 10 µM amounted to 95%.
Regarding `CC1CN(C(=O)Nc2ccccc2F)CC(C)O1` (centres unmarked) [CBK004990], where the note is “% viability”, the viability at 28.5 h, 10 µM is 89.9%.
Still for that read-out and setting: the result for `CCCCNc1ncncc1-c1ccc(Br)cc1` [CBK005014C] reads 88.6%; that for `O=C(CCN1CCOCC1)N/N=C\c1cccs1` [CBK005035], 90.6%.
Same read-out and setting: the result for `CCCCc1ccc(C(N)=O)nc1C(N)=O` [CBK005061] reads 88.8%; that for `CNC1CCCCCC1(O)c1ccccc1` (centres unmarked) [CBK005073], 99.2%; that for `COC(=O)c1nn(C(=O)N(C)C)c(C)c1Br` [CBK005077], 88.5%.
With `O=C1NC(=O)C2(CCN(Cc3ccccc3)CC2)N1` [CBK005078], the viability at 28.5 h, 10 µM (% viability) came to 86.8%.
For `O=C(c1ccccc1Cl)c1cc(Cl)ccc1-n1ccnc1` [CBK005151], the viability at 28.5 h, 10 µM (% viability) amounted to 95.2%.
Same read-out and setting: the result for `CCN(CC)C(=O)C1CCCN(C(=O)Nc2cccc(OC)c2)C1` (centres unmarked) [CBK005159] reads 92.9%.
Still for that read-out and setting: the result for `CCSc1cc(Nc2nc(Cl)cc(SCC)n2)nc(N)n1` [CBK005164] reads 92.6%.
`CS(=O)(=O)N1CC2(CCNCC2)c2ccccc21` [CBK005171]: the viability at 28.5 h, 10 µM (% viability) was determined as 94.4%.
The same measure, in the same setting: the result for `Cc1cn(S(=O)(=O)N(C)C)nc1-c1ccccc1` [CBK005210] reads 89.9%; that for `Clc1ccc(Nc2nnns2)cc1Cl` [CBK005211], 100%; that for `O[C@H]1CCC[C@@H]1NCc1ccc(Cl)c(Cl)c1` [CBK005217], 87%.
On the same count and under the same terms, the result for `CN(C)C(=O)[C@@]1(O)CCC2(c3ccc(Cl)cc3)CCCN(C)C2C1` (some centres unmarked) [CBK005234] reads 92.8%.
In the case of `C[C@@H]1[C@H]2Cc3ccc(O)cc3[C@]1(C)CCN2Cc1ccoc1` [CBK005262G], the viability at 28.5 h, 10 µM (% viability, bulk resorufin, single well) was found to be 103%.
Turning to `CC(=O)Oc1ccc(N2C(=O)CCSC2=S)cc1` [CBK005283], the viability at 28.5 h, 10 µM (% viability) was found to be 89.4%.
On the same count and under the same terms, the result for `COC(=O)c1ccc(CC(C)C)nc1SC1=NCCCN1` [CBK005294C] reads 94.1%.
The same measure, in the same setting: the result for `CC[C@@H]1C(=O)OC[C@@H]1Cc1cncn1C` [CBK005338C] reads 85.3%; that for `COc1ccc(CCN[C@H]2CCC[C@@H]2O)cc1OC` [CBK005354G], 78.4%.
With `CC1(C)OCc2nc(C(O)C(C)(C)C)ccc2O1` (centres unmarked) [CBK005386], the viability at 28.5 h, 10 µM (% viability) came out at 98.4%.
Still for that read-out and setting: the result for `Cc1ccc(CNc2cc(C)ccn2)cc1` [CBK005419] reads 106%; that for `COC(C(=O)N(C)C)C(OC)C(=O)N(C)C` (centres unmarked) [CBK005447], 111%; that for `CS(=O)(=O)c1sc(C(=O)O)c2c1C=CCC2` [CBK005513], 87.3%.
Still for that read-out and setting: the result for `CC1(C)CC(=O)C=C(SCC(=O)C(C)(C)C)S1` [CBK005523] reads 106%; that for `CCOC(=O)CS(=O)(=O)Cc1cc(Cl)nc(Cl)c1` [CBK005544], 109%; that for `O=C(NC(=O)N1CCOCC1)c1csnn1` [CBK005561], 86.4%.
Take `Nc1c(C(F)(F)F)cc(Cl)nc1Cl` [CBK005620]: the viability at 28.5 h, 10 µM (% viability) turned out to be 95.7%.
In the case of `C#CCOc1cccc2oc(CCC)cc(=O)c12` [CBK005628], the viability at 28.5 h, 10 µM (% viability) was 87.6%.
With `CCOC(=O)c1sc(Sc2nnc(C(F)(F)F)n2C)c2c1CC(C)(C)CC2=O` [CBK005649], the viability at 28.5 h, 10 µM (% viability) worked out at 101%.
The same measure, in the same setting: the result for `CS(=O)(=O)c1sc(C(=O)NC(=S)Nc2cccc(C(F)(F)F)c2)c2c1C=CCC2` [CBK005654] reads 96.9%; that for `C[S+]([O-])c1sc(Cl)c2c1C(=O)CCC2` (centres unmarked) [CBK005657], 104%; that for `CC(=O)c1ccc2c3c(cccc13)CC(N(C)C)C2` (centres unmarked) [CBK005691S], 95.8%.
Still for that read-out and setting: the result for `O=S(=O)(NCCCN1CCOCC1)c1cc(C(F)(F)F)cc(C(F)(F)F)c1` [CBK005796] reads 91%; that for `CC(C)(C)c1nc(COc2ccc3nonc3c2)no1` [CBK005831], 91.8%; that for `S=c1nc[nH]cc1-c1ccc(Br)cc1` [CBK005833], 87.6%.
On to `COC(=O)CCCCCSc1nc2ccc(O)c([N+](=O)[O-])c2s1` [CBK005867], for which the viability at 28.5 h, 10 µM (% viability) was 106%.
`CCOc1ccc2nc(SCCN3CCOCC3)sc2c1` [CBK005888]: where the note is “% viability”, the viability at 28.5 h, 10 µM is 89.6%.
The same measure, in the same setting: the result for `Nc1nccc(-c2cc(OCC(F)(F)F)ccc2OCC(F)(F)F)n1` [CBK005948] reads 94.6%.
Same read-out and setting: the result for `O=C(Nc1nccc(-c2cc(OCC(F)(F)F)ccc2OCC(F)(F)F)n1)c1cccs1` [CBK005949] reads 95.5%; that for `Cc1c(C#N)sc(-c2nc[nH]n2)c1C` [CBK005952], 77.6%.
On the same count and under the same terms, the result for `CSc1sc(C(=O)CC#N)c2c1C=CCC2` [CBK006004] reads 91%; that for `Nc1cc(O)n(Cc2ccco2)c(=S)n1` [CBK006010], 99.9%.
Regarding `CCOC(=O)c1cc2c(CNc3ccc(OC)nc3)cccc2o1` [CBK006086], the viability at 28.5 h, 10 µM (% viability) is 91.7%.
Still for that read-out and setting: the result for `O=C(c1cccs1)n1ccc(-c2ccc3c(c2)CCO3)n1` [CBK006090] reads 97.6%; that for `CC1(C)C=Cc2cc(/C(N)=N/O)ccc2O1` [CBK006095], 96.2%.
Still for that read-out and setting: the result for `O=C(Nc1ccc(C(F)(F)F)cc1)C1CCCS1` (centres unmarked) [CBK006142] reads 92.5%; that for `S=C(Nc1ccccc1)N1CCCCC1CN1CCCCC1` (centres unmarked) [CBK006196], 112%; that for `COC(=O)c1sc(-c2ccsc2)cc1N` [CBK006256], 91.8%.
Turning to `COCCCNC(=S)N/N=C/c1ccco1` [CBK006272], the viability at 28.5 h, 10 µM (% viability) came out at 104%.
Still for that read-out and setting: the result for `CSCC(O)Cn1nc(O)cc(C)c1=O` (centres unmarked) [CBK006293] reads 105%.
`CSc1cc(-c2cccs2)[nH]c(=O)c1C#N` [CBK006350]: the viability at 28.5 h, 10 µM (% viability) amounted to 79.7%.
On the same count and under the same terms, the result for `CSc1c(C#N)c(-c2cc(C(C)(C)C)on2)nn1C` [CBK006360] reads 96.4%; that for `COc1cc(C(F)(F)F)c(-c2ncn[nH]2)cn1` [CBK006362], 101%.
Same read-out and setting: the result for `O=C(Cc1nn[nH]n1)Nc1ccc(F)c(Cl)c1` [CBK006384] reads 95.4%.
For `CCCc1cc(=O)[nH]c(SCc2noc(-c3snnc3C)n2)n1` [CBK006474], under “% viability”, the viability at 28.5 h, 10 µM worked out at 87.4%.
The same measure, in the same setting: the result for `Fc1cccc(Cl)c1CN1CNC(=S)NC1` [CBK006480] reads 88.7%.
On to `CC1(C)[C@H]2CC/C(=N/O)[C@]1(C)NC2=O` [CBK006513], for which the viability at 28.5 h, 10 µM (% viability) was 84.8%.
Regarding `COc1cc(OC)c2nc(C(F)(F)F)cc(Cl)c2c1` [CBK006518], where the note is “% viability”, the viability at 28.5 h, 10 µM is 83.1%.
The same measure, in the same setting: the result for `O=C(O)c1nn(-c2ccccc2)c2cc([N+](=O)[O-])ccc12` [CBK006532] reads 95%; that for `COC(=O)CC1(C)C(=O)CCC2(C)C1=CCc1ccccc12` (centres unmarked) [CBK006547], 105%.
Still for that read-out and setting: the result for `O=C1CC(Cl)Sc2sc3ccccc3c21` (centres unmarked) [CBK006551] reads 86.6%.
On the same count and under the same terms, the result for `COC(=O)Cc1c(O)nn(C)c1Cc1cccc(C(F)(F)F)c1` [CBK006608] reads 99.5%.
`O=C1C[C@H]2[C@H](CC3(SCCS3)[C@@H]2CO)O1` [CBK006615]: for the setting “% viability”, the viability at 28.5 h, 10 µM turned out to be 90.2%.
Consider `Nc1ncnc(Nc2cc(C(F)(F)F)cc(C(F)(F)F)c2)n1` [CBK006617], for which, where the note is “% viability”, the viability at 28.5 h, 10 µM is 86.8%.
Still for that read-out and setting: the result for `C/C(=N\N=C1/NC(=O)C(CC(=O)O)S1)c1ccc(CC(C)C)cc1` (centres unmarked) [CBK006661] reads 93.5%; that for `C#CCOC(=O)NC(=O)c1csnn1` [CBK006685], 114%.
The same measure, in the same setting: the result for `CC(=O)CSc1nsc(SCC(C)=O)n1` [CBK006702] reads 89.6%.
For the compound `C1C/C(=N/N=C2\CCCc3nonc32)c2nonc2C1` [CBK006721], the viability at 28.5 h, 10 µM (% viability) turned out to be 93.9%.
Same read-out and setting: the result for `O=[N+]([O-])c1ccc(Sc2ccccc2C2=NCCCN2)nc1` [CBK006747C] reads 101%; that for `Brc1cccc(NN=C2CCCC2)n1` [CBK006748], 85.3%.
As for `OC12CCCON1OC(c1ccccc1)C2` (centres unmarked) [CBK006752], where the note is “% viability”, the viability at 28.5 h, 10 µM stood at 111%.
On the same count and under the same terms, the result for `O=C1NN=C(CSCCO)Oc2ccccc21` [CBK006771] reads 88.5%; that for `CC(=O)c1sc(=S)n(N(C)C)c1C` [CBK006774], 91.6%.
On the same count and under the same terms, the result for `CCN(CC)C1=NC(=S)N(C)C(c2ccc(OC)cc2)S1` (centres unmarked) [CBK006804] reads 99.3%; that for `COc1cc(C2CC(=O)N(c3cc(C)on3)C(=O)C2)cc(OC)c1OC` [CBK006810], 109%; that for `Cc1nn(-c2ccccc2)c2sncc12` [CBK006869], 109%.
Still for that read-out and setting: the result for `c1ccc(C2=NN=C(N3CCOCC3)SC2)cc1` [CBK006876G] reads 97.3%; that for `NNC(=O)CSc1nnc2ccc(C(F)(F)F)cn12` [CBK006897], 90.3%.
With `O=C(O)c1cc(Sc2nnnn2-c2ccccc2)c2ccccc2c1O` [CBK006925], for the setting “% viability”, the viability at 28.5 h, 10 µM was found to be 87.8%.
The same measure, in the same setting: the result for `COc1ccc(C)cc1N1CCCN(c2cc(C)ccc2OC)C1=O` [CBK006937] reads 84.8%; that for `O=C(CCCC(=O)N1CCCC1)N1CCCC1` [CBK006992], 108%.
Still for that read-out and setting: the result for `CCOC(=O)c1ccoc1C[N+](C)(CC)CC` [CBK007022I] reads 83.7%; that for `CC(=O)OC(C(=O)N1CCCCCC1)c1ccc(Br)cc1` (centres unmarked) [CBK007027], 109%.
Consider `CNS(=O)(=O)N1CCN(S(=O)(=O)NC)CC1` [CBK007064], for which the viability at 28.5 h, 10 µM (% viability) stood at 93.7%.
As to `CCCC1NCCn2cccc21` (centres unmarked) [CBK007074F], the viability at 28.5 h, 10 µM (% viability) came out at 85.6%.
With `S=C1NCCN1c1nnc(-c2cccs2)[nH]1` [CBK007096], the viability at 28.5 h, 10 µM (% viability) was found to be 97.3%.
